Reference: paper PMC12736958 (Pharmaceutics, 2025)
Several values for one entry are separate records, joined by “and”; a condition that tells them apart may be missing. Equal values may be shown once.

Key:
[1] = in vitro non-sink dissolution; type: physicochemical; conditions: Cur-equivalent 1 mg/mL, water pH 7.0, 37 °C
Method: (§1) The dissolution behavior of Cur formulations was evaluated under non-sink conditions. Tested formulations included pure amorphous Cur, binary Cur/P188 ASD (1:8, w/w), and ternary Cur/P188/TW80 and Cur/P188/SLS ASDs (1:8:1, w/w/w). Each sample was introduced into 6 mL of water (pH 7.0) to achieve a Cur-equivalent concentration of 1 mg/mL at 37 °C. Aliquots (0.4 mL) were collected at 10, 20, and 45 min, as well as at 1h and 2 h, and immediately centrifuged (10,000 rpm, 3 min, 25 °C) to separate the supernatant from the precipitate. (1) The supernatant was diluted 1:2 (v/v) with methanol and analyzed for Cur concentration via HPLC/UV-Vis; (2) The precipitate was vacuum-dried and analyzed for crystallinity using PXRD.
All dissolution experiments were conducted in triplicate (n = 3).
Cur content in in vitro dissolution samples was quantified using a Waters 2695 Alliance HPLC system (Waters Corporation, Milford, MA, USA) equipped with a Waters 2998 photodiode array (PDA) detector. Separation was performed on an XBridge® C18 column (4.6 × 250 mm, 5.0 μm; Waters) maintained at 25 °C. The mobile phase, composed of water and methanol (80:20, v/v), was delivered isocratically at a flow rate of 1.0 mL/min. The injection volume was 10 μL, and detection was performed at 430 nm, and Cur eluted at approximately 4.80 min. […]

[2] = PXRD crystallinity of precipitates collected during dissolution; type: physicochemical; conditions: precipitates collected at 20 min and 1 h of non-sink dissolution
Method: PXRD was used to characterize the crystalline nature of both freshly prepared Cur ASDs and precipitates collected during their dissolution. Measurements were conducted on a Rigaku Smartlab diffractometer (Rigaku Corporation, Tokyo, Japan) configured in Bragg–Brentano geometry using Cu Kα1 radiation. Diffractograms were collected over a 2θ range of 0° to 60° with a step size of 0.01°.
as §1

MDCK cells [3] = experiment: cytotoxicity assay (CCK-8 cell viability); type: cell-based, canine; conditions: 4 h treatment
Method: Madin-Darby Canine Kidney (MDCK) cells were seeded in 96-well plates (1 × 10^5 cells/well) and cultured for 24 h at 37 °C in complete DMEM (10% FBS, 1% penicillin–streptomycin) under 5% CO2. Cells were treated for 4 h with 100 µL of complete DMEM media (pH 7.4) containing crystalline Cur, amorphous Cur, binary Cur/P188 ASD (1:8, w/w), or ternary Cur/P188/TW80 or Cur/P188/SLS ASDs (1:8:1, w/w/w), at Cur-equivalent concentrations of 0 (vehicle), 2, 10, 25, 50, 100, and 200 μg/mL. After treatment, cells were washed three times with PBS (pH 7.4). Cell viability was assessed using a CCK-8 assay: 100 µL of serum-free DMEM and 10 µL of CCK-8 reagent were added to each well, followed by incubation for 2 h. Absorbance was measured at 450 nm using a Multiskan GO microplate reader (Thermo Fisher Scientific, Vantaa, Finland).
Cell viability was calculated according to the following equation:Viability (%) = [(As − Aᵦ)/(Ac − Aᵦ)] × 100% where
• As is the absorbance of experimental wells (cells + treatment + CCK-8); • Ac is the absorbance of control wells (cells + medium + CCK-8, no drug); • Aᵦ is the absorbance of blank wells (medium + CCK-8, no cells, no drug).
All experiments were performed in quintuplicate (n = 5).

MDCK cells [4] = experiment: cellular uptake study (LC-MS/MS of intracellular Cur); type: cell-based, canine; conditions: 10 min incubation, 5 μg Cur-equivalent (10 μg/mL)
Method: MDCK cells were seeded in 24-well plates and cultured following the procedures described in Cytotoxicity Assay section. The cells were treated with 500 µL of complete DMEM medium (pH 7.4) containing crystalline Cur, amorphous Cur, binary Cur/P188 ASD (1:8, w/w), or ternary Cur/P188/TW80 or Cur/P188/SLS ASDs (1:8:1, w/w/w), at Cur-equivalent dose of 5 µg per well. After 10 min of incubation, the treatment was terminated by immediate removal of the medium. The cells were then washed three times with ice-cold PBS, lysed with 200 µL of 0.1% SDS (assisted by sonication), and dissolved in methanol at a 1:2 (v/v) ratio. The total intracellular Cur content was quantified using LC-MS/MS. All experiments were performed in quadruplicate (n = 4).
(§2) Cur quantification in cellular and rat plasma samples was carried out using a SCIEX QTRAP® 5500 LC-MS/MS system coupled with a SCIEX ExionLC^TM AC system (AB SCIEX, Framingham, MA, USA).
Separation was achieved on an Acquity UPLC® BEH C18 column (100 × 2.1 mm, 1.7 μm; Waters) maintained at 40 °C. […]
Mass spectrometric detection was performed using an IonDrive^TM Turbo V ion (SCIEX, Framingham, MA, USA) source operating in negative electrospray ionization (ESI) mode. Quantification was conducted via multiple reaction monitoring (MRM) at m/z 367.1→133.9 for Cur, and m/z 294.1→250.0 for diclofenac sodium (IS). […]

[5] = in vivo pharmacokinetic study in rats; set-up: species or system Sprague-Dawley (SD) rats; conditions: rat; for plasma concentration of Cur, individual animals: Rat1-Rat5, listed as Intravenous Cur
Method: Male Sprague-Dawley (SD) rats (200 ± 20 g) were supplied by SPF Biotechnology Co., Ltd. (Beijing, China) and housed under standard laboratory conditions throughout the study. All animals were housed in a controlled environment (22 ± 2 °C, 55 ± 10% humidity) under a 12/12 h light/dark cycle, with free access to a standard laboratory rodent diet and water. A 12 h fasting period was implemented prior to the experiment, with water permitted ad libitum. All animal procedures were performed in strict accordance with protocols approved by the Biological and Medical Ethics Committee of Minzu University of China.
After fasting for 12 h (with free access to water), SD rats (n = 25) were randomly divided into five groups (n = 5 per group). Group 1: crystalline Cur (i.v., dissolved in saline with 5% DMSO). Group 2: crystalline Cur (p.o., suspended in 0.5% CMC-Na). Group 3: Cur/P188 ASD (1:8, w/w; p.o.). Group 4: Cur/P188/TW80 ASD (1:8:1, w/w/w; p.o.). Group 5: Cur/P188/SLS ASD (1:8:1, w/w/w; p.o.). Group 1 received the formulation via tail vein injection, while Groups 2–5 were suspended in water (pH 7.0) and administered orally by gavage at a Cur-equivalent dose of 40 mg/kg. Blood samples (0.2 mL) were collected from each rat at 4, 7, 10, 20, and 30 min, and 1, 2, 4, and 24 h post-dosing. Plasma was separated by centrifugation (5000 rpm, 5 min, 4 °C) and stored at −80 °C until analysis.
Cur was extracted from 50 μL of plasma using 600 μL of ethyl acetate and quantified by LC-MS/MS, with diclofenac sodium (20 μL, 200 ng/mL) serving as the internal standard. Blank plasma was obtained from a separate control group (n = 5) that received water only. Analysis of these blank samples confirmed the absence of significant matrix interference, thereby validating the analytical method.
as §2
Separation was achieved on an Acquity UPLC® BEH C18 column (100 × 2.1 mm, 1.7 μm; Waters) maintained at 40 °C. The mobile phase consisted of (A) 0.1% formic acid in water and (B) acetonitrile (ACN), delivered at a flow rate of 0.14 mL/min with the following gradient program: 10% B (0–1.0 min), increased to 95% B (1.0–9.0 min), and returned to 10% B (9.0–12.0 min). The injection volume was 5 μL. The retention times were approximately 4.85 min for Cur and 6.70 min for diclofenac sodium, used as the internal standard (IS).
Mass spectrometric detection was performed using an IonDrive^TM Turbo V ion (SCIEX, Framingham, MA, USA) source operating in negative electrospray ionization (ESI) mode. Quantification was conducted via multiple reaction monitoring (MRM) at m/z 367.1→133.9 for Cur, and m/z 294.1→250.0 for diclofenac sodium (IS). The assay was linear over the concentration range of 2-500 ng/mL (R^2 > 0.999). All data were acquired in triplicate (n = 3) and processed using MultiQuant software version 3.0.2 (AB SCIEX).
Pharmacokinetic parameters were calculated using non-compartmental analysis with DAS 2.0 software (Boying Corporation, Beijing, China). Data analysis was performed using GraphPad Prism 10.1.2 software. The result is expressed as mean ± standard deviation (SD). For pairwise comparisons between groups, t-tests were conducted. For multiple group comparisons, one-way analysis of variance (ANOVA) was performed, followed by Tukey’s post hoc test for multiple comparisons. Prior to ANOVA, the assumptions of normality and homogeneity of variances were verified using the Shapiro–Wilk test and Bartlett’s test, respectively. p < 0.05 indicates statistically significant differences.

[6] = male, Sprague-Dawley, plasma, iv, 40 mg/kg Cur-equivalent

COc1cc(/C=C/C(=O)CC(=O)/C=C/c2ccc(O)c(OC)c2)ccc1O [amorphous Cur, Curcumin]
dissolved Cur concentration reached over 2 h [1]: ~ 1 μg/mL
crystallinity of precipitates during dissolution (PXRD) [2]: crystallized immediately upon hydration
IC50 (cytotoxicity, Cur-equivalent) (MDCK cells [3]): 54.7 µg/mL
cellular uptake (% of the administered dose) (MDCK cells [4]): 1.4%

COc1cc(/C=C/C(=O)CC(=O)/C=C/c2ccc(O)c(OC)c2)ccc1O [Solution Cur, Curcumin]
Cmax [5, 6]: 334 ± 9.6 ng/mL
Tmax [5, 6]: 6 min
half-life [5, 6]: 1.8 ± 0.2 h
MRT last ([5]; male, Sprague-Dawley, plasma, iv, i.v., 40 mg/kg Cur-equivalent, read-out: MRT(0–24)): 5.2 ± 0.2 h
concentration at 0.07 h ([5]; male, Sprague-Dawley, plasma, iv, 40 mg/kg, i.v., 40 mg/kg, 0.07 h, Rat1-Rat5, read-out: plasma concentration of Cur, individual animals): 331 ng/mL
concentration at 0.12 h ([5]; male, Sprague-Dawley, plasma, iv, 40 mg/kg, i.v., 40 mg/kg, 0.12 h, Rat1-Rat5, read-out: plasma concentration of Cur, individual animals): 261 ng/mL
concentration at 0.17 h ([5]; male, Sprague-Dawley, plasma, iv, 40 mg/kg, i.v., 40 mg/kg, 0.17 h, Rat1-Rat5, read-out: plasma concentration of Cur, individual animals): 220 ng/mL
concentration at 0.33 h ([5]; male, Sprague-Dawley, plasma, iv, 40 mg/kg, i.v., 40 mg/kg, 0.33 h, Rat1-Rat5, read-out: plasma concentration of Cur, individual animals): 181 ng/mL
concentration at 0.5 h ([5]; male, Sprague-Dawley, plasma, iv, 40 mg/kg, i.v., 40 mg/kg, 0.5 h, Rat1-Rat5, read-out: plasma concentration of Cur, individual animals): 160 ng/mL
concentration at 1 h ([5]; male, Sprague-Dawley, plasma, iv, 40 mg/kg, i.v., 40 mg/kg, 1 h, Rat1-Rat5, read-out: plasma concentration of Cur, individual animals): 85.2 ng/mL
concentration at 2 h ([5]; male, Sprague-Dawley, plasma, iv, 40 mg/kg, i.v., 40 mg/kg, 2 h, Rat1-Rat5, read-out: plasma concentration of Cur, individual animals): 50.6 ng/mL
concentration at 4 h ([5]; male, Sprague-Dawley, plasma, iv, 40 mg/kg, i.v., 40 mg/kg, 4 h, Rat1-Rat5, read-out: plasma concentration of Cur, individual animals): 25.9 ng/mL
concentration at 24 h ([5]; male, Sprague-Dawley, plasma, iv, 40 mg/kg, i.v., 40 mg/kg, 24 h, Rat1-Rat5, read-out: plasma concentration of Cur, individual animals): 8.3 ng/mL
plasma concentration of Cur, individual animals ([5]; i.v., 40 mg/kg, 0.07 h): 340.1 ng/mL and 337.1 ng/mL and 323.9 ng/mL and 342.5 ng/mL
plasma concentration of Cur, individual animals ([5]; i.v., 40 mg/kg, 0.12 h): 255.2 ng/mL and 257.9 ng/mL and 258.8 ng/mL and 264.3 ng/mL
plasma concentration of Cur, individual animals ([5]; i.v., 40 mg/kg, 0.17 h): 215.1 ng/mL and 212.7 ng/mL and 219.1 ng/mL and 237.5 ng/mL
plasma concentration of Cur, individual animals ([5]; i.v., 40 mg/kg, 0.33 h): 192.4 ng/mL and 207.1 ng/mL and 170.5 ng/mL and 217.7 ng/mL
plasma concentration of Cur, individual animals ([5]; i.v., 40 mg/kg, 0.5 h): 130.3 ng/mL and 126.5 ng/mL and 120.8 ng/mL and 194.6 ng/mL
plasma concentration of Cur, individual animals ([5]; i.v., 40 mg/kg, 1 h): 96.5 ng/mL and 101.5 ng/mL and 102.2 ng/mL and 65.3 ng/mL
plasma concentration of Cur, individual animals ([5]; i.v., 40 mg/kg, 2 h): 63.9 ng/mL and 65.1 ng/mL and 75.3 ng/mL and 40.5 ng/mL
plasma concentration of Cur, individual animals ([5]; i.v., 40 mg/kg, 4 h): 35.9 ng/mL and 25.7 ng/mL and 32.9 ng/mL and 22.5 ng/mL
plasma concentration of Cur, individual animals ([5]; i.v., 40 mg/kg, 24 h): 10.2 ng/mL and 9.5 ng/mL and 8.5 ng/mL and 8.7 ng/mL
